This passage reports IC50 results from patent publication US9326934B2, “Drug delivery from rapid gelling polymer composition” (Angiotech International AG, priority 2002, dated 2016).

One experiment has as its system THP-1 cells. Description: TNF-alpha production by macrophages (ELISA). Format: cell-based, human. As to conditions: 1 mg/mL opsonized zymosan, 24 hours, n=4, FIG. 8, read-out: IC50 TNFα production. On the procedure:
The human macrophage cell line, THP-1 is plated in a 12 well plate such that each well contains 1×10^6 cells in 2 mL of media containing 10% FCS. Opsonized zymosan is prepared by resuspending 20 mg of zymosan A in 2 mL of ddH2O and homogenizing until a uniform suspension is obtained. Homogenized zymosan is pelleted at 250 g and resuspended in 4 mL of human serum for a final concentration of 5 mg/mL. and incubated in a 37° C. water bath for 20 minutes to enable opsonization. Bay 11-7082 is prepared in DMSO at a concentration of 10^−2 M and serially diluted 10-fold to give a range of stock concentrations (10^−8 M to 10^−2 M) (J. Immunol. (2000) 165: 411-418; J. Immunol. (2000) 164: 4804-4811; J. Immunol. Meth. (2000) 235 (1-2): 33-40).
THP-1 cells are stimulated to produce TNFα by the addition of 1 mg/mL opsonized zymosan. […]
After a 24 hour stimulation, supernatants are collected to quantify TNFα production. TNFα concentrations in the supernatants are determined by ELISA using recombinant human TNFα to obtain a standard curve. […] The dilution of Capture Antibody used is lot-specific and is determined empirically. […] Stop Solution (2 NH2SO4) is then added to the wells and a yellow colour reaction is read at 450 nm with λ correction at 570 nm. Mean absorbance is determined from triplicate data readings and the mean background is subtracted. […]

A further experiment concerns human fibroblasts. In words: Screening assay for cell proliferation (CYQUANT). It is filed as cell-based. As to conditions: Fibroblast, 72 hours, n=4 replicate experiments, FIG. 6. On the procedure: Fibroblasts at 70-90% confluency are trypsinized, replated at 600 cells/well in media in 96-well plates and allowed to attachment overnight. […] Each drug concentration is tested in triplicate wells.
To terminate the assay, the media is removed by gentle aspiration. […] Plates are incubated at room temperature, protected from light for 3-5 minutes.

By IC50 is commonly meant the concentration that inhibits the measured activity by half. On to `Cc1ccc(S(=O)(=O)/C=C/C#N)cc1` [Bay 11-7082], for which, in the experiment with THP-1 cells, the IC50 was 810 nM.
Compound `O=C1c2c(O)ccc(O)c2C(=O)c2c(NCCNCCO)ccc(NCCNCCO)c21` [Mitoxantrone, 9,10-Anthracenedione, 1,4-dihydroxy-5,8-bis[[2-[(2-hydroxyethyl)amino]ethyl]amino]-] had an IC50 with human fibroblasts of 20 nM.
